Where two headings read alike, the source gives them in different places.
System: mice
Method: A formalin-inactivated and a double-inactivated (formalin+UV-irradiation) RRV candidate vaccine was adjusted to 10 μg per dose, and then diluted in 4 fold steps. Each dilution was injected into a group of 10 mice. After 3 weeks the mice were boostered with the corresponding amount of the vaccine. Blood samples were drawn at week 3, before the booster, and at week 6, 3 weeks after the booster. The sera were analyzed by a RRV antibody ELISA. The effective dose 50 (ED50), this is the antigen dose which is sufficient to induce seroconversion in 50% of the immunized mice, was then calculated.

Q: With Formalin as the substance, how does the “number of mice with ELISA-Titer 10^1” value (Week 3, N 60) read?
A: 8

Q: And the “number of mice with ELISA-Titer 10^2” value (Week 3, N 60)?
A: 8

Q: What about the “number of mice with ELISA-Titer 10^3” value (Week 3, N 60) of the same substance?
A: 9

Q: What about the “number of mice with ELISA-Titer 10^4” value (Week 3, N 60) of the same substance?
A: 0

Q: And the “number of mice with ELISA-Titer 10^5” value (Week 3, N 60)?
A: 0

Q: What about the “number of mice with ELISA-Titer 10^6” value (Week 3, N 60) of the same substance?
A: 0

Q: What about the “number of mice with ELISA-Titer 10^7” value (Week 3, N 60) of the same substance?
A: 0

Q: And the “number of mice with ELISA-Titer 10^8” value (Week 3, N 60)?
A: 0

Q: What about the “number of mice with ELISA-Titer <10^1” value (Week 3, N 60) of the same substance?
A: 35

Q: What about the “number of mice with ELISA-Titer 10^4” value (Week 3, N 60, listed as formalin group) of the same substance?
A: no mouse

Q: What about the “number of mice with ELISA-Titer 10^1” value (Week 6, after booster, N 60) of the same substance?
A: 7

Q: What about the “number of mice with ELISA-Titer 10^2” value (Week 6, after booster, N 60) of the same substance?
A: 5

Q: And the “number of mice with ELISA-Titer 10^3” value (Week 6, after booster, N 60)?
A: 15

Q: What about the “number of mice with ELISA-Titer 10^4” value (Week 6, after booster, N 60) of the same substance?
A: 11

Q: And the “number of mice with ELISA-Titer 10^5” value (Week 6, after booster, N 60)?
A: 8

Q: And the “number of mice with ELISA-Titer 10^6” value (Week 6, after booster, N 60)?
A: 0

Q: And the “number of mice with ELISA-Titer 10^7” value (Week 6, after booster, N 60)?
A: 0

Q: And the “number of mice with ELISA-Titer 10^8” value (Week 6, after booster, N 60)?
A: 0

Q: And the “number of mice with ELISA-Titer <10^1” value (Week 6, after booster, N 60)?
A: 14

Q: What about the “ED50 Week 6 (Booster)” value (mice, 3 weeks after the booster) of the same substance?
A: 33 ng

Q: And the “ED50 Week 3” value (mice, before the booster, antigen dose inducing seroconversion in 50% of immunized mice)?
A: 635 ng

From patent US8703467B2 (priority 2004, dated 2014)
